Measured values from patent US9072741B2, “Methods of treating liver fibrosis and pre-cirrhosis with epidermal growth factor receptor inhibitors” (The General Hospital Corporation, priority 2009, dated 2015).
Values joined by “and” are separate entries in the source; they are usually repeats but may differ in a detail not shown here. Equal values may be shown once. Marks after values point to notes of the source that are not given here.

How the values were obtained:
[1] = system: DEN-induced liver fibrosis/cirrhosis; test: DEN-induced rat model: fibrosis/cirrhosis by Ishak score of Masson's trichrome stained liver sections; format: in vivo, male Wistar rats; conditions: for mode of Ishak score: vehicle mode 6; for range of Ishak score: vehicle range 2-6
Experimental: FIG. 2A is a bar graph depicting the Ishak score of male Wistar rats receiving weekly intraperitoneal injections of DEN (50 mg/kg) for 18 weeks and vehicle only (n=16), 0.5 mg/kg erlotinib (Erl 0.5; n=8), or 2 mg/kg erlotinib (Erl 2; n=8) during weeks 12-18.
FIG. 6A is a bar graph depicting the Ishak score of male Wistar rats receiving weekly intraperitoneal injections of DEN (50 mg/kg) for 18 weeks and vehicle only (n=8) or 18 mg/kg lapatinib (n=8) during weeks 12-18. *, significant.
Erlotinib is a drug used to treat non-small cell lung cancer and pancreatic cancer. Erlotinib specifically targets the EGFR, which is highly expressed and occasionally mutated in various forms of cancer, by binding to the adenosine triphosphate (ATP) binding site of the receptor (Raymond et al., Drugs 60 Suppl 1:15-23, 2000). To investigate erlotinib as a chemoprevention strategy for liver fibrogenesis, male Wistar rats were given a weekly intraperitoneal injection of 50 mg/kg DEN to induce cirrhosis and HCC (Lee et al., Korean J Hepatol 13:70-80, 2007). Erlotinib was administered by intraperitoneal injection daily (5× a week) during weeks 12-18 at a dose of 2 mg/kg, which is equivalent to chemotherapeutic dosing regimens in humans. […] In a separate study, the dose of erlotinib was lowered to 0.5 mg/kg.
(§1) Repeated injury to the liver causes damage to hepatocytes and activates resident macrophages called Kupffer cells. Damaged hepatocytes and activated Kupffer cells secrete cytokines and growth factors into the liver milieu, which activate hepatic stellate cells (Friedman, Gastroenterology 134:1655-69, 2008). Normally, hepatic stellate cells are quiescent and store vitamin A and fat. Upon activation, they differentiate into a myofibroblast-phenotype and express α-smooth muscle actin (α-SMA) (Friedman, Gastroenterology 134:1655-69, 2008). Activated hepatic stellate cells deposit fibrous collagen into the space of Disse acutely causing fibrosis and chronically causing cirrhosis. The degree of liver disease (fibrosis versus cirrhosis) is pathologically assessed through trichrome staining of collagen by the method of Ishak (Mod Pathol 7:690-713, 1994).
In early stages of liver fibrosis, collagen deposition is localized around the portal tracts (Ishak score 1 or 2), but it bridges between portal tracts at later stages of fibrosis (Ishak score 3 or 4) and ultimately forms nodules around regenerating hepatocytes during cirrhosis (Ishak score 5 or 6). Although there is some heterogeneity in this model, intraperitoneal administration of DEN causes, on average, an Ishak score 0.8 (range 0-2) fibrosis after 8 weeks, an Ishak score 4.1 (range 3-6) fibrosis/cirrhosis after 12 weeks, and an Ishak score 5.1 (range 4-6) cirrhosis after 18 weeks. Consistent with this, hepatic stellate cell activation increases over time after DEN administration as assessed by α-SMA staining.
Remarkably, erlotinib inhibited fibrogenesis. […] The range for 16 vehicle animals was 2-6 with a mode of 6 as illustrated in FIG. 2B. […] To further examine the effects of erlotinib on liver fibrosis, α-SMA staining was performed for activated hepatic stellate cells.
To investigate lapatinib as a chemoprevention strategy for liver fibrogenesis, male Wistar rats were given a weekly intraperitoneal injection of 50 mg/kg DEN to induce cirrhosis and HCC (Lee et al., Korean J Hepatol 13:70-80, 2007). Lapatinib was administered by intraperitoneal injection daily (5× a week) during weeks 12-18 at a dose of 18 mg/kg.
Similar to erlotinib, lapatinib inhibited fibrogenesis. […] To further examine the effects of lapatinib on liver fibrosis, α-SMA staining was performed for activated hepatic stellate cells.

[2] = system: activated hepatic stellate cells; test: α-SMA staining of liver sections for activated hepatic stellate cells in DEN-treated rats; format: in vivo, male Wistar rats
Experimental: FIGS. 2B-2G are a series of six panels showing representative pictures of Masson's trichome (B-D) and α-SMA stains (E-G) of liver sections from rats receiving weekly intraperitoneal injections of DEN (50 mg/kg) for 18 weeks and (B and E) vehicle only, (C and F) 0.5 mg/kg erlotinib (Erl 0.5), or (D and G) 2 mg/kg erlotinib (Erl 2) during weeks 12-18.
FIGS. 6B-6E are a series of four panels showing representative pictures of Masson's trichrome (B-C) and α-SMA stains (D-E) of liver sections from rats receiving weekly intraperitoneal injections of DEN (50 mg/kg) for 18 weeks and (B and D) vehicle only or (C and E) 18 mg/kg lapatinib during weeks 12-18.
as §1, with “Activated hepatic stellate cells deposit fibrous collagen into the space of Disse acutely causing fibrosis and chronically causing cirrhosis.” left out, “1994). […]” for “1994).”

[3] = system: advanced HCC; conditions: recent clinical trials (Philip et al.; Thomas et al.); cited from earlier work
[4] = system: DEN-induced fibrosis and cirrhosis; test: DEN-treated rats with liver biopsy before and after treatment (disease progression within the same animal); format: in vivo, male Wistar rats
Experimental: FIG. 3A is a scheme of the experiment. Male Wistar rats received weekly intraperitoneal injections of DEN (50 mg/kg) for 18 weeks. After 12 weeks, the rats underwent a survival hepatectomy and a liver biopsy was removed for histology. Rats then received vehicle or erlotinib (2 mg/kg) daily (5 days/week) during weeks 13-18. Rats were sacrificed at 19 weeks after a one-week washout of DEN. FIG. 3B is a bar graph showing Ishak scores from Masson's trichrome stains of liver sections from each animal. **p<0.01 compared to vehicle. FIG. 3C is a bar graph depicting the number of tumor nodules that were greater than 5 mm in diameter in rats that received vehicle or erlotinib. **p<0.01 compared to vehicle. FIG. 3D is a bar graph showing the weights of livers at the time of sacrifice expressed as percent body weight.
To further examine the ability of erlotinib to reverse fibrosis and cirrhosis, liver biopsies were performed on DEN-treated rats before and after they received erlotinib (FIG. 3A) to determine disease progression within the same animal.

## CS(=O)(=O)CCNCc1ccc(-c2ccc3ncnc(Nc4ccc(OCc5cccc(F)c5)c(Cl)c4)c3c2)o1 [lapatinib, 4-Quinazolinamine, N-(3-chloro-4-((3-fluorophenyl)methoxy)phenyl)-6-(5-(((2-(methylsulfonyl)ethyl)amino)methyl)-2-furanyl)]
[1]; 18 mg/kg weeks 12-18, n=8, vehicle 5.6
  average Ishak score: 4.3
[2]; 18 mg/kg weeks 12-18 vs vehicle
  activation of hepatic stellate cells (α-SMA staining): dramatically decreased the activation of hepatic stellate cells in a dose-dependent fashion

## C#Cc1cccc(Nc2ncnc3cc(OCCOC)c(OCCOC)cc23)c1 [erlotinib, 4-Quinazolinamine, N-(3-ethynylphenyl)-6,7-bis(2-methoxyethoxy)]
[3]
  disease control in advanced HCC patients: improved disease control in only a minority
[1]; 0.5 mg/kg weeks 12-18, n=8, vehicle 4.9
  average Ishak score: 4.3
[1]; 0.5 mg/kg weeks 12-18
  mode of Ishak score: 4
  range of Ishak score: 3-6
[1]; 2 mg/kg weeks 12-18, n=8, vehicle 4.9
  average Ishak score: 2.6
[1]; 2 mg/kg weeks 12-18
  mode of Ishak score: 2
  range of Ishak score: 1-4
[4]; 2 mg/kg weeks 13-18, eight animals
  animals with reversed disease progression: two out of eight
[4]; 2 mg/kg weeks 13-18 vs vehicle
  fibrosis and cirrhosis (Ishak, FIG. 3B): significantly less fibrosis and cirrhosis
  tumorigenesis (tumor nodules greater than 5 mm, FIG. 3C): significant decrease in tumorigenesis
[4]; 2 mg/kg weeks 13-18 vs vehicle, at sacrifice
  liver weight (percent body weight, FIG. 3D): decrease in liver weight
[4]; average of 8 rats after 2 mg/kg weeks 13-18, vehicle 5.8
  Ishak 19 weeks, AVERAGE: 4.3*
[4]; average of 8 rats, 2 mg/kg weeks 13-18, vehicle +2.2
  Change of Ishak score, AVERAGE: +1
[4]; average of 8 rats, biopsy before treatment, vehicle 3.6
  Ishak 13 weeks, AVERAGE: 3.3
[4]; individual rats, 19 weeks vs 13 weeks, 2 mg/kg weeks 13-18, 2 mg/kg
  Change of Ishak score: +3 and +2 (3×) and −2 and −1 and +1 (2×)
[4]; individual rats, after 2 mg/kg daily (5 days/week) weeks 13-18
  Ishak 19 weeks: 6 and 5 (2×) and 4 (3×) and 3 (2×)
[4]; individual rats, biopsy before treatment (baseline)
  Ishak 13 weeks: 3 (4×) and 2 (2×) and 5 (2×)
[2]; 0.5 and 2 mg/kg weeks 12-18 vs vehicle
  activation of hepatic stellate cells (α-SMA staining): dramatically decreased the activation of hepatic stellate cells in a dose-dependent fashion
